Source: patent publication US20260347373A1, “HETEROCYCLIC COMPOUNDS, COMPOSITIONS THEREOF, AND METHODS OF TREATMENT THEREWITH” (BeOne Medicines I GmbH, priority 2023, published 2026)

Legend:
WT KRAS = WT KRAS (Homo sapiens, UniProt P01116); test: KRAS WT Probe Displacement Assay (TR-FRET, GDP-loaded); type: binding; conditions: KRAS WT, read-out: KRAS^WT Probe Displacement Assay IC50
Excerpt: (§1) The synthetic routes of probe 1 and 2, which have been disclosed in PCT/CN2022/070676, are hereby incorporated herein.

KRAS G12D = KRAS G12D (Homo sapiens, UniProt P01116, G12D); test: KRAS G12D Probe Displacement Assay (TR-FRET, GDP-loaded); type: binding; conditions: KRAS G12D, read-out: KRAS^G12D Probe Displacement Assay IC50
Sequence of KRAS G12D (P01116 1-188 isoform P01116-2 G12D): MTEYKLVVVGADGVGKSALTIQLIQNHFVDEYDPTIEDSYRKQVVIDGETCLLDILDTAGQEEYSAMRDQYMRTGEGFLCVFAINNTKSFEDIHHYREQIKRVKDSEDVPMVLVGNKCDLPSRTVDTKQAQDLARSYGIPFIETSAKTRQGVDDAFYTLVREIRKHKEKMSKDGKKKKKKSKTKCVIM
Excerpt: as §1

Sequence of WT KRAS (P01116 1-188 isoform P01116-2): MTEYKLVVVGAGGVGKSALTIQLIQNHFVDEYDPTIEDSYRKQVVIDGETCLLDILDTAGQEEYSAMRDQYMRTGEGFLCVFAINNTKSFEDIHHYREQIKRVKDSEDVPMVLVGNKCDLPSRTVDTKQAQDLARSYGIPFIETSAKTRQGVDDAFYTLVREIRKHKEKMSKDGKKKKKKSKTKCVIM

Structure (SMILES) | IC50 (WT KRAS) [nM] | IC50 (KRAS G12D) [nM]
Cc1cc(N)cc(-c2nc3c4c(nc(OCC5(CN6CC7CC(C6)O7)CC5)nc4c2F)N2C[C@H]4CC[C@H](N4)[C@H]2CCO3)c1C(F)(F)F [Example 105, 3-((6aR,7S,10R)-13-((1-((6-oxa-3-azabicyclo [3.1.1]heptan-3-yl)methyl)cyclopropyl)methoxy)-1-fluoro-5,6,6a,7,8,9,10,11-octahydro-4-oxa-3,11a,12,14,15-pentaaza-7,10-methanocyclohepta [4,5]cycloocta [1,2,3-de]naphthalen-2-yl)-5-methyl-4-(trifluoromethyl)aniline] | 0.3 to 3 | < 0.3
Cc1cc(N)cc(-c2nc3c4c(nc(OCC5(CN6CC(F)C6)CC5)nc4c2F)N2C[C@H]4CC[C@H](N4)[C@H]2CCO3)c1C(F)(F)F [Example 69, 3-((6aR,7S,10R)-1-fluoro-13-((1-((3-fluoroazetidin-1-yl)methyl)cyclopropyl)methoxy)-5,6,6a,7,8,9,10,11-octahydro-4-oxa-3,11a,12,14,15-pentaaza-7,10-methanocyclohepta[4,5]cycloocta [1,2,3-de]naphthalen-2-yl)-5-methyl-4-(trifluoromethyl)aniline] | 3 to 1000 | < 0.3
[2H]C([2H])([2H])N1C[C@H](OC)C[C@H]1[C@H](C)Oc1nc2c3c(nc(-c4cc(N)cc(Cl)c4C(F)(F)F)c(F)c3n1)OCC[C@@H]1[C@@H]3CC[C@H](CN21)N3 [Example 220, 3-chloro-5-((6aR,7S,10R)-1-fluoro-13-((S)-1-((2S,4R)-4-methoxy-1-(methyl-d3)pyrrolidin-2-yl)ethoxy)-5,6,6a,7,8,9,10,11-octahydro-4-oxa-3,11a,12,14,15-pentaaza-7,10-methanocyclohepta[4,5]cycloocta[1,2,3-de]naphthalen-2-yl)-4-(trifluoromethyl)aniline] | 3 to 1000 | < 0.3
[2H]C([2H])([2H])N1CCC(C(F)F)C(C)(C([2H])([2H])Oc2nc3c4c(nc(-c5cc(N)cc(Cl)c5C(F)(F)F)c(F)c4n2)OCC[C@@H]2[C@@H]4CC[C@H](CN32)N4)C1 (single isomer, unassigned) [Example 247] | 0.3 to 3 | < 0.3
Cc1cc(N)cc(-c2nc3c4c(nc(OCC5(CN6C[C@@H](C)O[C@@H](C)C6)CC5(F)F)nc4c2F)N2C[C@H]4CC[C@H](N4)[C@H]2CCO3)c1C(F)(F)F (single isomer, unassigned) [Example 22] | 3 to 1000 | < 0.3
Cc1cc(N)cc(-c2nc3c4c(nc(OC[C@@]5(C)CCCN(C6CCOCC6)C5)nc4c2F)N2C[C@H]4CC[C@H](N4)[C@H]2CCO3)c1C(F)(F)F [Example 195, 3-((6aR,7S,10R)-1-fluoro-13-(((S)-3-methyl-1-(tetrahydro-2H-pyran-4-yl)piperidin-3-yl)methoxy)-5,6,6a,7,8,9,10,11-octahydro-4-oxa-3,11a,12,14,15-pentaaza-7,10-methanocyclohepta[4,5]cycloocta[1,2,3-de]naphthalen-2-yl)-5-methyl-4-(trifluoromethyl)aniline] | 0.3 to 3 | < 0.3
COC[C@H]1[C@@H]2C[C@@H]2CN1CC1(COc2nc3c4c(nc(-c5cc(N)cc(C)c5C(F)(F)F)c(F)c4n2)OCC[C@@H]2[C@@H]4CC[C@H](CN32)N4)CC1 [Example 181, 3-((6aR,7S,10R)-1-fluoro-13-((1-(((1R,2R,5S)-2-(methoxymethyl)-3-azabicyclo[3.1.0]hexan-3-yl)methyl)cyclopropyl)methoxy)-5,6,6a,7,8,9,10,11-octahydro-4-oxa-3,11a,12,14,15-pentaaza-7,10-methanocyclohepta[4,5]cycloocta[1,2,3-de]naphthalen-2-yl)-5-methyl-4-(trifluoromethyl)aniline] | 3 to 1000 | < 0.3
Cc1cc(N)cc(-c2nc3c4c(nc(OCC5(CN6CCC(O)(C(F)(F)F)CC6)CC5)nc4c2F)N2C[C@H]4CC[C@H](N4)[C@H]2CCO3)c1C(F)(F)F [Example 114, 1-((1-((((6aR,7S,10R)-2-(5-amino-3-methyl-2-(trifluoromethyl)phenyl)-1-fluoro-5,6,6a,7,8,9,10,11-octahydro-4-oxa-3,11a,12,14,15-pentaaza-7,10-methanocyclohepta [4,5]cycloocta [1,2,3-de]naphthalen-13-yl)oxy)methyl)cyclopropyl)methyl)-4-(trifluoromethyl) piperidin-4-ol] | 0.3 to 3 | < 0.3
COC1CN(CC2(COc3nc4c5c(nc(-c6cc(N)cc(C)c6C(F)(F)F)c(F)c5n3)OCC[C@@H]3[C@@H]5CC[C@H](CN43)N5)CC2)CC1F (single isomer, unassigned) [Example 186] | 3 to 1000 | < 0.3
Cc1cc(N)cc(-c2nc3c4c(nc(O[C@@H](C)[C@@H]5C[C@@H](F)CN5C)nc4c2F)N2C[C@H]4CC[C@H](N4)[C@H]2CCO3)c1C(F)(F)F [Example 74, 3-((6aR,7S,10R)-1-fluoro-13-((S)-1-((2S,4R)-4-fluoro-1-methylpyrrolidin-2-yl)ethoxy)-5,6,6a,7,8,9,10,11-octahydro-4-oxa-3,11a,12,14,15-pentaaza-7,10methanocyclohepta[4,5]cycloocta [1,2,3-de]naphthalen-2-yl)-5-methyl-4-(trifluoromethyl)aniline] | 3 to 1000 | < 0.3
C[C@H](Oc1nc2c3c(nc(-c4cc(N)cc(Cl)c4C(F)(F)F)c(F)c3n1)OCC[C@@H]1[C@@H]3CC[C@H](CN21)N3)[C@@H]1CCCN1C [Example 140, 3-chloro-5-((6aR,7S,10R)-1-fluoro-13-((S)-1-((S)-1-methylpyrrolidin-2-yl)ethoxy)-5,6,6a,7,8,9,10,11-octahydro-4-oxa-3,11a,12,14,15-pentaaza-7,10-methano-cyclohepta[4,5]cycloocta [1,2,3-de]naphthalen-2-yl)-4-(trifluoromethyl)aniline] | 3 to 1000 | < 0.3
CO[C@H]1CCN(CC2(COc3nc4c5c(nc(-c6cc(N)cc(C)c6C(F)(F)F)c(F)c5n3)OCC[C@@H]3[C@@H]5CC[C@H](CN43)N5)CC2)C[C@H]1F [Example 185, 3-((6aR,7S,10R)-1-fluoro-13-((1-(((3R,4S)-3-fluoro-4-methoxypiperidin-1-yl)methyl)cyclopropyl)methoxy)-5,6,6a,7,8,9,10,11-octahydro-4-oxa-3,11a,12,14,15-pentaaza-7,10-methanocyclohepta[4,5]cycloocta[1,2,3-de]naphthalen-2-yl)-5-methyl-4-(trifluoromethyl)aniline] | 3 to 1000 | < 0.3
Cc1cc(N)cc(-c2nc3c4c(nc(OC[C@@]56CCCN5CC(=C(F)F)C6)nc4c2F)N2C[C@H]4CC[C@H](N4)[C@H]2CCO3)c1C(F)(F)F [Example 200, 3-((6aR,7S,10R)-13-(((S)-2-(difluoromethylene)tetrahydro-1H-pyrrolizin-7a(5H)-yl)methoxy)-1-fluoro-5,6,6a,7,8,9,10,11-octahydro-4-oxa-3,11a,12,14,15-pentaaza-7,10-methanocyclohepta[4,5]cycloocta[1,2,3-de]naphthalen-2-yl)-5-methyl-4-(trifluoromethyl)aniline] | 3 to 1000 | < 0.3
